Assay results reported in US10364470B2, “Long non-coding RNA expressed in aggressive cancer” (The Regents of the University of California, priority 2014, dated 2019).

Assays:
Assay type in all cases: cell-based, human
SATB1 = SATB1 transcription or protein level after SAILOR knockdown; conditions: BT549 cells
SAILOR = SAILOR knockdown with shRNA in BT549 cell lines
Excerpt: (§1) The effect of SAILOR on the growth rate of BT549 cells was studied. SAILOR expression was reduced by ˜80% in BT549 cell lines with a short-hairpin RNA (shRNA), 5′-[…]-3′ (SEQ ID NO:14), which targets SAILOR exon 4 at sequence […] (SEQ ID NO:15) (FIG. 5).

BT549 cells = test: Growth rate of BT549 cells after SAILOR knockdown
Excerpt: as §1

Substance: 5′-GGTGGAAGAGTAAACTGTTCCCGAAGGAACAGTTTACTCTTCCACC-3′ (expressed or natural sequence) [shRNA]
- effect of reduced SAILOR levels on SATB1 transcription or protein level (SATB1): did not affect
- SAILOR expression reduced (knock down) (SAILOR): ~80%
- growth rate of SAILOR knockdown cells (BT549 cells): slowed growth rate
